Laboratory results published in ChEMBL document CHEMBL4190383, “Hit discovery of Mycobacterium tuberculosis inosine 5'-monophosphate dehydrogenase, GuaB2, inhibitors” (Bioorg Med Chem Lett, 2018).
In brackets after ≈: the same amount, converted by molar mass. Activity calls are given as the source filed them. The calls are words filed in the database; no cut-off is given here.

Legend:
[1] = system: Mycobacterium tuberculosis; assay: Antimicrobial activity against Mycobacterium tuberculosis H37Rv by alamar blue assay; assay type: functional
[2] = system: Mycobacterium tuberculosis; assay: Antimicrobial activity against Mycobacterium tuberculosis SRMV2.6 H37Rv by alamar blue assay; assay type: functional
[3] = system: Mycobacterium tuberculosis; assay: Inhibition of Mycobacterium tuberculosis GuaB2 at 50 uM
[4] = Inhibition of Mycobacterium tuberculosis GuaB2
[5] = Octanol/water partition coefficient , logP of the compound; assay type: physicochemical
[6] = system: Mycobacterium tuberculosis; assay: Antimicrobial activity against Mycobacterium tuberculosis H37Rv in presence of 0.08 to 5 ng/ml anhydrotetracycline-induced guaB2 gene silencing by alamar blue assay; assay type: functional, organism-based
[7] = target: Inosine-5'-monophosphate dehydrogenase 2 (Homo sapiens) (UniProt P12268); assay: Inhibition of human IMPDH2 at 10 uM
Staphylococcus aureus = assay: Growth inhibition of methicillin-resistant Staphylococcus aureus at 32 ug/ml; assay type: functional; settings: read-out: GI
Escherichia coli = assay: Growth inhibition of Escherichia coli at 32 ug/ml; assay type: functional; settings: read-out: GI
Klebsiella pneumoniae = assay: Growth inhibition of Klebsiella pneumoniae at 32 ug/ml; assay type: functional; settings: read-out: GI
Pseudomonas aeruginosa = assay: Growth inhibition of Pseudomonas aeruginosa at 32 ug/ml; assay type: functional; settings: read-out: GI
Acinetobacter baumannii = assay: Growth inhibition of Acinetobacter baumannii at 32 ug/ml; assay type: functional; settings: read-out: GI
Candida albicans = assay: Growth inhibition of Candida albicans at 32 ug/ml; assay type: functional; settings: read-out: GI
Cryptococcus neoformans = assay: Growth inhibition of Cryptococcus neoformans var. grubii at 32 ug/ml; assay type: functional; settings: read-out: GI

Chain of Inosine-5'-monophosphate dehydrogenase 2 (Homo sapiens) (P12268 2-514 limits assumed): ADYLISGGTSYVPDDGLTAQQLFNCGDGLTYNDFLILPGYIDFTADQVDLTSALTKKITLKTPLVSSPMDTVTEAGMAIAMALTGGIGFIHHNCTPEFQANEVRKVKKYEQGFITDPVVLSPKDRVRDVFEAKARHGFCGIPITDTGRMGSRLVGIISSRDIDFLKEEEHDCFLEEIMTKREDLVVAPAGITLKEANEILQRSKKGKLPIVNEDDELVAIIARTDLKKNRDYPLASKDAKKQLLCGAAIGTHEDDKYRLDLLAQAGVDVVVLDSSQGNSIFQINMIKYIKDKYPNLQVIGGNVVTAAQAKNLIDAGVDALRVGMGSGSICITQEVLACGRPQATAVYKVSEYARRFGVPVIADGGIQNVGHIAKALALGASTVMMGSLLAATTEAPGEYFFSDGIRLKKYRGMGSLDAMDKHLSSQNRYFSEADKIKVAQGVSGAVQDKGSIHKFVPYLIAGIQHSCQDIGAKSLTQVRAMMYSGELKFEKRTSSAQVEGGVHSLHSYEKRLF

COc1ccc(NC(=O)Nn2c(C)nc3sccc3c2=O)cc1
MIC90 [1]: > 100 µM

CC(C(=O)Nc1ccc2c(c1)COC2=O)c1ccc(C(=O)c2ccccc2)cc1 (stereo not drawn)
MIC90 [1]: 100 µM (≈ 38.5 µg/mL)
MIC90 [2]: 100 µM (≈ 38.5 µg/mL)
inhibition [3]: 95.2%
IC50 [4]: 6.2 µM
logP [5]: 3.67
Activity [6]: Active
inhibition [7]: 23%
inhibition of growth at 32 µg/mL (Staphylococcus aureus): 25.2%
inhibition of growth at 32 µg/mL (Escherichia coli): -2.97%
inhibition of growth at 32 µg/mL (Klebsiella pneumoniae): 15.6%
inhibition of growth at 32 µg/mL (Pseudomonas aeruginosa): 3.08%
inhibition of growth at 32 µg/mL (Acinetobacter baumannii): 1.89%
inhibition of growth at 32 µg/mL (Candida albicans): 5.25%
inhibition of growth at 32 µg/mL (Cryptococcus neoformans): -94.7%

COc1ccc2[nH]c(S(=O)(=O)Cc3c(C)c(OC)c(C)c[n+]3[O-])nc2c1
MIC90 [1]: > 100 µM

Clc1ccc(Cn2nncc2COc2ccc3ccccc3c2)c(Cl)c1
MIC90 [1]: > 100 µM

O=C(COc1ccc(C(=O)/C=C/c2cccs2)cc1)Nc1ccc2c(c1)COC2=O
MIC90 [1]: > 100 µM

Fc1ccccc1NC(=S)Nc1ccc(-c2ccccc2Cl)cn1
MIC90 [1]: > 100 µM

O=C(O)CCCC(=O)Nc1ccc(N2CC3(COC3)C2)c(F)c1
MIC90 [1]: > 100 µM

Fc1ccccc1NC(=S)Nc1ccc(-c2cccc(Cl)c2)cn1
MIC90 [1]: > 100 µM

O=C(O)CCCC(=O)N1CCn2c(nnc2C(F)(F)F)C1
MIC90 [1]: > 100 µM

O=C1OCc2cc(NS(=O)(=O)c3ccc([N+](=O)[O-])cc3)ccc21
MIC90 [1]: > 100 µM

O=C(COc1ccc2ccccc2c1)Nc1ccc2c(c1)COC2=O
MIC90 [1]: > 100 µM

O=C1OCc2cc(NC(=O)c3cccnc3Cl)ccc21
MIC90 [1]: > 100 µM

Cc1nc2sccc2c(=O)n1NC(=S)Nc1ccccc1F
MIC90 [1]: > 100 µM

O=C(O)COCC(=O)Nc1ccccc1C(=O)O
MIC90 [1]: > 100 µM

Cc1ccccc1NC(=S)Nc1ccc(-c2cc(Cl)cc(Cl)c2)cn1
MIC90 [1]: > 100 µM

Cc1nc2sccc2c(=O)n1NC(=O)Nc1ccc([N+](=O)[O-])cc1
MIC90 [1]: > 100 µM

O=C(O)CCC(=O)NCc1ccc2c(c1)OCO2
MIC90 [1]: > 100 µM

Fc1ccccc1Cn1nncc1COc1ccc2ccccc2c1
MIC90 [1]: > 100 µM

Fc1ccc(Cn2nncc2COc2ccc3ccccc3c2)cc1
MIC90 [1]: > 100 µM

Cc1nnc(-c2ccc(OCc3cnnn3Cc3ccc(F)cc3)cc2)o1
MIC90 [1]: > 100 µM

CC(C(=O)Nc1ccc2c(c1)COC2=O)c1cccc(C(=O)c2ccccc2)c1 (stereo not drawn)
MIC90 [1]: 100 µM (≈ 38.5 µg/mL)

CC(C)Cc1ccc(C(C)C(=O)Nc2ccc3c(c2)COC3=O)cc1 (stereo not drawn)
MIC90 [1]: > 100 µM

COc1c(C)c2c(c(O)c1C/C=C(\C)CCC(=O)O)C(=O)OC2 [MYCOPHENOLIC ACID]
MIC90 [1]: 50 µM (≈ 16 µg/mL)
MIC90 [2]: 50 µM (≈ 16 µg/mL)
inhibition [3]: 83%
IC50 [4]: 27.2 µM
logP [5]: 2.68
Activity [6]: Active
inhibition [7]: 99.9%
inhibition of growth at 32 µg/mL (Staphylococcus aureus): 52.4%
inhibition of growth at 32 µg/mL (Escherichia coli): 2.37%
inhibition of growth at 32 µg/mL (Klebsiella pneumoniae): 3.78%
inhibition of growth at 32 µg/mL (Pseudomonas aeruginosa): 18.8%
inhibition of growth at 32 µg/mL (Acinetobacter baumannii): 19.4%
inhibition of growth at 32 µg/mL (Candida albicans): 96.9%
inhibition of growth at 32 µg/mL (Cryptococcus neoformans): 91.4%

COc1cccc(NC(=O)Nn2c(C)nc3sccc3c2=O)c1
MIC90 [1]: > 100 µM

Cc1nnc(-c2ccc(OCc3cnnn3Cc3ccc(Cl)cc3)cc2)o1
MIC90 [1]: > 100 µM

CC(=O)C1CCN(CC(=O)Nn2c(C)nc3sccc3c2=O)CC1
MIC90 [1]: > 100 µM

O=C(COc1cccc2ccccc12)Nc1ccc2c(c1)COC2=O
MIC90 [1]: > 100 µM

COc1cc(C(=O)/C=C/c2cc(OC)c(OC)c(OC)c2)ccc1OCC(=O)Nc1ccc2c(c1)COC2=O
MIC90 [1]: > 100 µM

Cc1nnc(-c2ccc(OCc3cnnn3Cc3ccccc3F)cc2)o1
MIC90 [1]: 100 µM (≈ 36.5 µg/mL)
MIC90 [2]: > 100 µM
inhibition [3]: 71%
logP [5]: 2.5 to 3.5
inhibition [7]: 0.1%
inhibition of growth at 32 µg/mL (Staphylococcus aureus): 7.55%
inhibition of growth at 32 µg/mL (Escherichia coli): -5.41%
inhibition of growth at 32 µg/mL (Klebsiella pneumoniae): -2.49%
inhibition of growth at 32 µg/mL (Pseudomonas aeruginosa): 0.96%
inhibition of growth at 32 µg/mL (Acinetobacter baumannii): -8.76%
inhibition of growth at 32 µg/mL (Candida albicans): 2.24%
inhibition of growth at 32 µg/mL (Cryptococcus neoformans): -88.2%

Cc1nnc(-c2ccc(OCc3cnnn3Cc3cccc(Cl)c3)cc2)o1
MIC90 [1]: 50 µM (≈ 19.1 µg/mL)
MIC90 [2]: > 100 µM
inhibition [3]: inactive
inhibition [7]: 0.1%
inhibition of growth at 32 µg/mL (Staphylococcus aureus): 10.3%
inhibition of growth at 32 µg/mL (Escherichia coli): -5.62%
inhibition of growth at 32 µg/mL (Klebsiella pneumoniae): 2.15%
inhibition of growth at 32 µg/mL (Pseudomonas aeruginosa): 5.84%
inhibition of growth at 32 µg/mL (Acinetobacter baumannii): -12.1%
inhibition of growth at 32 µg/mL (Candida albicans): -0.27%
inhibition of growth at 32 µg/mL (Cryptococcus neoformans): -76.2%

Cc1cc(OCC(=O)Nc2ccc3c(c2)COC3=O)ccc1[N+](=O)[O-]
MIC90 [1]: > 100 µM

COc1cccc(Cn2nncc2COc2ccc(-c3nnc(C)o3)cc2)c1
MIC90 [1]: 50 µM (≈ 18.9 µg/mL)
MIC90 [2]: 100 µM (≈ 37.7 µg/mL)
inhibition [3]: 35%
inhibition [7]: 0.1%
inhibition of growth at 32 µg/mL (Staphylococcus aureus): 5.5%
inhibition of growth at 32 µg/mL (Escherichia coli): -7.43%
inhibition of growth at 32 µg/mL (Klebsiella pneumoniae): -4.35%
inhibition of growth at 32 µg/mL (Pseudomonas aeruginosa): 1.44%
inhibition of growth at 32 µg/mL (Acinetobacter baumannii): -15.3%
inhibition of growth at 32 µg/mL (Candida albicans): 3.07%
inhibition of growth at 32 µg/mL (Cryptococcus neoformans): -59.4%

O=C(O)CCCC(=O)Nc1cc(-c2ccco2)[nH]n1
MIC90 [1]: > 100 µM

Cc1nc2sccc2c(=O)n1NC(=O)Nc1ccc(F)cc1
MIC90 [1]: > 100 µM

COc1ccc(NC(=O)CC/C(C)=C/Cc2c(O)c3c(c(C)c2OC)COC3=O)cc1
MIC90 [1]: > 100 µM

Cc1nnc(-c2ccc(OCc3cnnn3Cc3ccc(C#N)cc3)cc2)o1
MIC90 [1]: > 100 µM
